Patent US10508077B2 (FORMA Therapeutics, Inc., priority 2015, dated 2019)

Biological target: T1, Full length human recombinant HDAC8 protein (Homo sapiens, UniProt Q9BY41)
T1 construct: Full length human recombinant HDAC8 protein was expressed in baculoviral system; made in house
T1 sequence (Q9BY41 1-377): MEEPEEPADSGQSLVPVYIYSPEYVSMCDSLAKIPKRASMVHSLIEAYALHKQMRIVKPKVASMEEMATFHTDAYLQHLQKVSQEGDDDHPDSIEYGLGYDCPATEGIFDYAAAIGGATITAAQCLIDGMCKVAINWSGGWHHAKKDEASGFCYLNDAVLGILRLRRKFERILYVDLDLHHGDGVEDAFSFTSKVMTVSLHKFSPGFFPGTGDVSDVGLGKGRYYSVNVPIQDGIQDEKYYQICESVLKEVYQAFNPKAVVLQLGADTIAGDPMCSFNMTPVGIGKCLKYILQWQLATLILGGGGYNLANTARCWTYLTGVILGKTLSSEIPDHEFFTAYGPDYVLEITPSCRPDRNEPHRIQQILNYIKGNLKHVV
Test: In vitro histone deacetylase assay: enzymatic HDAC8 assay, electrophoretic mobility shift
Format: biochemical
Details: substrate RHKK(Ac)-NH2, 1 nM enzyme, compounds listed under IC50 range headings
Experimental: The enzymatic HDAC8 assay was performed using electrophoretic mobility shift assay. Full length human recombinant HDAC8 protein was expressed in baculoviral system and purified by affinity chromatography. The enzymatic reactions were assembled in 384 well plates in a total volume of 25 μL in a reaction buffer composing: 100 mM HEPES, pH7.5, 25 mM KC, 0.1% bovine serum albumin, 0.01% Triton X-100, 1% DMSO (from compounds) 2 μM of the fluorescently labeled peptide substrate and enzyme. The enzyme was added at a final concentration of 1 nM. The peptide substrate RHKK(Ac)-NH2 was used. The compounds were tested at 12 concentrations spaced by 3× dilution intervals. Negative control samples (0%-inhibition in the absence of inhibitor) and positive control samples (100%-inhibition) were assembled in replicates of four in each assay plate. The reactions were incubated at 25° C. and quenched by the addition of 45 μL of termination buffer (100 mM HEPES, pH 7.5, 0.01% Triton X-100, 0.05% SDS).
The terminated assay plates were analyzed on LabChip® 3000 microfluidic electrophoresis instrument (Perkin Elmer/Caliper Life Sciences). The fluorescence intensity of the electrophoretically separated de-acetylated product and substrate peptide was measured. Activity in each sample was determined as the product to sum ratio (PSR): P/(S+P), where P is the peak height of the product peptide and S is the peak height of the substrate peptide. Percent inhibition (Pinh) is determined using the following equation: Pinh=(PSR0%−PSRinh)/(PSR0%−PSR100%)*100, where PSRinh is the product sum ratio in the presence of inhibitor, PSR0% is the average product sum ration in the absence of inhibitor and PSR 100% is the average product sum ratio in 100%-inhibition control samples. The IC50 values of inhibitors were determined by fitting the %-inhibition curves with 4 parameter dose-response model using XLfit 4 software. Ranges of IC50 values for compounds of the invention are disclosed in Table 26.

IC50	Compound
< 1000 nM	CC(C)(C)OC(=O)NC1CCN(c2ccccc2/C=C/C(=O)NO)C1 (stereo not shown) [Example I-301, tert-butyl (E)-(1-(2-(3-(hydroxyamino)-3-oxoprop-1-en-1-yl)phenyl)pyrrolidin-3-yl)carbamate]
< 1000 nM	COc1cc(-c2ccccc2)sc1C(=O)Nc1ccccc1/C=C/C(=O)NO [Example I-284, (E)-N-(2-(3-(hydroxyamino)-3-oxoprop-1-en-1-yl)phenyl)-3-methoxy-5-phenylthiophene-2-carboxamide]
< 1000 nM	O=C(/C=C/c1ccccc1C(=O)N1CCN(c2ccccc2)CC1)NO [II-19, (E)-N-hydroxy-3-(2-(4-phenylpiperazine-1-carbonyl)phenyl)acrylamide]
< 1000 nM	O=C(/C=C/c1ccccc1C(=O)N1CCN(c2ccncc2)CC1)NO [II-20]
< 1000 nM	O=C(/C=C/c1ccccc1C(=O)N1CCC(F)(F)CC1)NO [II-17, (E)-3-(2-(4,4-difluoropiperidine-1-carbonyl)phenyl)-N-hydroxyacrylamide]
< 1000 nM	Cn1cc(-c2ncc(C(=O)Nc3ccccc3/C=C/C(=O)NO)s2)cn1 [Example I-285, (E)-N-(2-(3-(hydroxyamino)-3-oxoprop-1-en-1-yl)phenyl)-2-(1-methyl-1H-pyrazol-4-yl)thiazole-5-carboxamide]
< 1000 nM	Cc1ccc(Sc2ncccc2C(=O)Nc2ccccc2/C=C/C(=O)NO)cc1 [Example I-280, (E)-N-(2-(3-(hydroxyamino)-3-oxoprop-1-en-1-yl)phenyl)-2-(p-tolylthio)nicotinamide]
< 1000 nM	Cn1cc2c(n1)CCN(C(=O)c1ccccc1/C=C/C(=O)NO)C2 [II-25, (E)-N-hydroxy-3-(2-(2-methyl-4,5,6,7-tetrahydro-2H-pyrazolo[4,3-c]pyridine-5-carbonyl)phenyl)acrylamide]
< 1000 nM	CC(Cc1ccccc1)C(=O)N1CCN(c2ccccc2/C=C/C(=O)NO)CC1 (stereo not shown) [Example I-297, (E)-N-hydroxy-3-(2-(4-(2-methyl-3-phenylpropanoyl)piperazin-1-yl)phenyl)acrylamide]
1000 to 10000 nM	CC(=O)NC1CCN(C(=O)c2ccccc2/C=C/C(=O)NO)CC1 [II-8, (E)-3-(2-(4-acetamidopiperidine-1-carbonyl)phenyl)-N-hydroxyacrylamide]

The next lines start with the compound.

Compound	IC50
O=C(/C=C/c1ccccc1N1CCC(NC(=O)CC23CCCN2CCC3)CC1)NO [Example I-146]	< 1000 nM
O=C(/C=C/c1ccccc1N1CCC(NS(=O)(=O)Cc2ccc(F)cc2)CC1)NO [Example I-228, (E)-3-(2-(4-(((4-fluorophenyl)methyl)sul-fonamido)piperidin-1-yl)phenyl)-N-hydroxyacrylamide]	< 1000 nM
O=C(/C=C/c1ccccc1N1CCN(S(=O)(=O)Cc2ccc(F)cc2)CC1)NO [Example I-251, (E)-3-(2-(4-((4-fluorobenzyl)sulfonyl)pi-perazin-1-yl)phenyl)-N-hydroxyacrylamide]	< 1000 nM
CNc1ccc(C(=O)NC2CCN(c3ccccc3/C=C/C(=O)NO)CC2)cc1 [Example I-133, (E)-N-(1-(2-(3-(hydroxyamino)-3-oxoprop-1-en-1-yl)phenyl)piperidin-4-yl)-4-(methylamino)benzamide]	< 1000 nM
CN(C)Cc1ccccc1CNC1CCN(c2ccccc2C=CC(=O)NO)CC1 [Example I-17, (E)-3-(2-(4-((2-((dimethylamino)methyl)benzyl)amino)piperidin-1-yl)phenyl-N-hydroxyacrylamide]	1000 to 10000 nM
O=C(/C=C/c1ccccc1NC(=O)c1cc2n(n1)CCC2)NO [Example I-74, (E)-N-(2-(3-(hydroxyamino)-3-oxoprop-1-en-1-yl)phenyl)-5,6-dihydro-4H-pyrrolo[1,2-b]pyrazole-2-carboxamide]	< 1000 nM
COc1ccccc1S(=O)(=O)NC1CCN(c2ccccc2/C=C/C(=O)NO)CC1 [Example I-238, (E)-N-hydroxy-3-(2-(4-((2-methoxyphenyl)sulfon-amido)piperidin-1-yl)phenyl)acrylamide]	< 1000 nM
O=C(/C=C/c1cccnc1NC(=O)c1cccc(C(F)(F)F)c1)NO [Example I-122]	< 1000 nM
CC(C)(C)OC(=O)N1CCCC2(CCN(c3ccccc3/C=C/C(=O)NO)CC2)C1 [Example I-109, tert-butyl (E)-9-(2-(3-(hydroxyamino)-3-oxoprop-1-en-1-yl)phenyl)-2,9-diazaspiro[5.5]undecane-2-carboxylate]	< 1000 nM
CS(=O)(=O)CCCC(=O)NC1CCN(c2ccccc2/C=C/C(=O)NO)CC1 [Example I-136, (E)-N-(1-(2-(3-(hydroxyamino)-3-oxoprop-1-en-1-yl)phenyl)piperidin-4-yl)-4-(methylsulfonyl)butan-amide]	< 1000 nM
O=C(/C=C/c1ccccc1NC(=O)c1ccc(-n2cccc2)nc1)NO [Example I-273, (E)-N-(2-(3-(hydroxyamino)-3-oxoprop-1-en-1-yl)phenyl)-6-(1H-pyrrol-1-yl)nicotinamide]	< 1000 nM
O=C(/C=C/c1ccccc1N1CCC(NS(=O)(=O)c2ccc(OC(F)F)cc2)CC1)NO [Example I-234, (E)-3-(2-(4-((4-(difluoromethoxy)phenyl)sulfonamido)piperidin-1-yl)phenyl)-N-hydroxyacrylamide]	< 1000 nM
O=C(/C=C/c1ccccc1NCC1CCOC1)NO (stereo not shown) [Example I-106, (E)-N-hydroxy-3-(2-(((tetrahydrofuran-3-yl)methyl)amino)phenyl)acrylamide]	< 1000 nM
O=C(/C=C/c1ccccc1NCc1nc2ccccc2[nH]1)NO [Example I-39, (E)-3-(2-(((1H-benzo[d]imidazol-2-yl)methyl)amino)phenyl)-N-hydroxyacrylamide]	< 1000 nM
COc1ccc(C(=O)N2CCN(c3ccccc3/C=C/C(=O)NO)CC2)cc1F [Example I-213]	< 1000 nM
O=C(/C=C/c1ccccc1N1CCC(NC(=O)C2CC(F)(F)C2)CC1)NO [Example I-149, (E)-3,3-difluoro-N-(1-(2-(3-(hydroxyamino)-3-oxoprop-1-en-1-yl)phenyl)piperidin-4-yl)cyclobutane-1-carboxamide]	< 1000 nM
O=C(/C=C/c1ccccc1NCc1ccc(-c2ccccc2)nc1)NO [Example I-99, (E)-N-hydroxy-3-(2-(((6-phenylpyridin-3-yl)methyl)amino)phenyl)acrylamide]	< 1000 nM
CN(C)CC1(CN2CCN(c3ccccc3/C=C/C(=O)NO)CC2)CCCC1 [Example I-186, (E)-3-(2-(4-((1-((dimethylamino)methyl)cyclopentyl)methyl)piperazin-1-yl)phenyl)-N-hydroxyacrylamide]	< 1000 nM
Cn1cnc(S(=O)(=O)NC2CCN(c3ccccc3/C=C/C(=O)NO)CC2)c1 [Example I-237, (E)-N-hydroxy-3-(2-(4-((1-methyl-1H-imidazole)-4-sulfonamido)piperidin-1-yl)phenyl)acrylamide]	< 1000 nM
O=C(/C=C/c1ccccc1N1CCN(Cc2cccc(C(F)(F)F)c2)CC1)NO [Example I-171, (E)-N-hydroxy-3-(2-(4-(3-(trifluoromethyl)benzyl)piperazin-1-yl)phenyl)acrylamide]	< 1000 nM
O=C(/C=C/c1ccccc1N1CCN(C(=O)C2(c3ccccc3)CC2)CC1)NO [Example I-36, (E)-N-hydroxy-3-(2-(4-(1-phenylcyclopropane-1-carbonyl)piperazin-1-yl)phenyl)acrylamide]	1000 to 10000 nM
